According to patent US20040033482A1, “Device and method for the measurement of forces from living materials” (priority 2000, published 2004):

Test system: fibroblasts (or smooth muscle cells)
Experiment: Measurement of lateral intrinsic forces of a cell layer cultured on an elastically deformable membrane (membrane deflection read by laser)
Format: cell-based
Conditions: for change in cell layer tension in dependence on time: FIG. 4, consecutive addition of thrombin (20, 50, 100 U/ml), EDTA (0.1% by weight, 2 min), trypsin (0.2% by weight, 15 min); for tension transmitted to the membrane (intrinsic forces): FIG. 5 and FIG. 6, addition of thrombin, then EDTA, then trypsin
Method: A commercially available PET membrane is adhered to an open end of a cylinder; the other end remains open. During the adhesion process, a metal ring is used to pull uniformly on the membrane, such that the membrane is then stretched so that it is completely flat but not plastically deformed. 400 μl of cell culture medium (DPBS), corresponding to a fill height of a liquid column of about 2 mm, are then applied to the membrane (having a diameter of 16 mm). Due to the culture medium, the membrane is elastically preformed, i.e. deflected, and prepared for the application of living material.
1 ml of a suspension of fibroblasts (or smooth muscle cells), containing a cell count of 5×10^4/ml (or 7×10^4/ml), is then added to the prestretched membrane and the entire device is incubated in an incubator at 37° C. for 4 days for the purpose of culturing the cells. After the culturing, the culture medium is replaced with 400 μl of fresh medium. The mounting, together with membrane and cells cultured on it, which has thus been prepared is inserted into the measuring device and the measurement is carried out using a laser beam as the sensor.
As a result of replication, the cells adhere to the membrane and form a confluent monolayer (or multilayer). In connection with this, the cells secrete, over time, an extracellular matrix (ECM).
As a result of the growth of the cells, and the tensile stress in the cell layer and in the ECM which is connected therewith, and as a result of the fact that the cells and the ECM adhere to the membrane, the membrane experiences a change in tension. As a consequence of this, the deflection of the membrane decreases and raises the fill level of the medium slightly. This change in the deflection of the membrane is determined using a laser.
In order to stimulate the cell layer(s), thrombin is added to the medium to give final concentrations of 0-100 U/ml. 20 U/ml of culture medium are added first of all. The thrombin binds to the thrombin receptors and induces cell contraction. The membrane rises further to a slight extent. In this connection, the cells contract with a time constant which is typical. After a theoretically infinite measuring time, the measured change in the deflection of the membrane reaches a typical saturation value. Further quantities of thrombin are added consecutively to the cell culture medium above the membrane in increasing order, i.e. initially 50 U/ml and then 100 U/ml. The changes in the deflection of the membrane are measured correspondingly.
In each case, the cells are permitted to develop the contraction until, in the simplest case by way of fitting an exponential function, there is no need to await the achievement of the final value but, instead, the final measurement of the achievable concentration can be approximated. This decreases the measuring time. Both the characteristic onset time for the thrombin-mediated contraction effect and the maximum contraction which can be achieved in association with this contraction can be calculated from the exponential function which has been fitted.
The cells are detached from the ECM by adding EDTA (0.1% by weight) for a reaction time of 2 min. The same volumes as the quantities of liquid which are added in this connection are simultaneously removed once again at another site in the measuring chamber. The cells become detached with a typical time constant. As a consequence of this, the tension in the membrane changes since the forces acting on the membrane as a result of the cell contraction are no longer present; this means that the membrane becomes further deflected once again. In this case, too, an exponential function is approximated and the time constant and the final value of the tension recovery can be calculated approximately.
The ECM which is adhering to the membrane still maintains a part of the tension which arose during the cell growth. Adding trypsin (0.2% by weight) for a reaction time of 15 min. degrades the ECM. […]

| Molecule | change in cell layer tension in dependence on time | tension transmitted to the membrane (intrinsic forces) |
| --- | --- | --- |
| trypsin | also declines | tension in the extracellular matrix to subside |
| O=C(O)CN(CCN(CC(=O)O)CC(=O)O)CC(=O)O [EDTA] | intrinsic forces which are measured decrease | membrane relaxing |
| thrombin | contraction of the living material can be observed to increase as the concentration of thrombin increases | increase markedly |
